Measurements: patent US8785488B2 (Exelixis Patent Company LLC, priority 2009, dated 2014)

Assays:
[1] = molecular target: T1, human TGR5 (h-TGR5) (Homo sapiens, UniProt Q8TDU6); assay: TGR5/CRE-Luciferiase Assay (HEK 293 hTGR5/CRE-Luc cells); type: cell-based; details: h-TGR5 CRE-Luc EC50, Table 1; read-out: CRE-Luc (EC50)
T1 construct: expressed in transfected cells
T1 sequence (Q8TDU6 1-330): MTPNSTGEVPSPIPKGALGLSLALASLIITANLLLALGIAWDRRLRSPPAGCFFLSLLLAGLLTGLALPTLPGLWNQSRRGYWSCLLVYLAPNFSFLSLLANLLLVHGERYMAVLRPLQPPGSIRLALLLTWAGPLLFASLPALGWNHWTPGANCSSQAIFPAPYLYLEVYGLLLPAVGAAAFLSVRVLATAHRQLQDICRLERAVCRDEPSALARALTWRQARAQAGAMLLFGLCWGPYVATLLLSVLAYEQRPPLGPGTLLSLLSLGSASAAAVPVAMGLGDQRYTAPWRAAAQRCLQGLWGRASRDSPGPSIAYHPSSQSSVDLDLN
Method in brief: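 HEK293 cells stably carrying hTGR5 and a CRE-luciferase reporter were exposed to serially diluted compounds (diluted in DMEM with 5% DMSO) for 6 h. Cells were then lysed in luciferase buffer, luminescence was read, and EC50 values were derived from dose-response curves.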

[2] = molecular target: T2, h-TGR5 (Homo sapiens, UniProt Q8TDU6); assay: TGR5 cAMP Assay using Cisbio cAMP Dynamic2 htrf kit (hTGR5CRE-luc HEK 293 cells); type: cell-based; details: h-TGR5 cAMP EC50, Table 1; read-out: cAMP (EC50)
T2 construct: expressed in transfected cells
T2 sequence (Q8TDU6 1-330): T1 sequence (Q8TDU6 1-330)
Method in brief: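 […], 4000 hTGR5CRE-luc HEK 293 cells per well, with 0.5 mM IBMX and d2-cAMP, were incubated 30 min at room temperature with compounds in 8-point half-log series, in quadruplicate.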

SMILES	EC50 [1] [nM]	EC50 [2] [nM]
COc1cc(-n2c(C(C)(C)c3ccc(S(C)(=O)=O)c(Cl)c3)cnc2SCc2ccc(S(=O)(=O)NC(=O)NN3CCCC3)cc2Cl)ccc1F [3-chloro-4-{[(5-{1-[3-chloro-4-(methylsulfonyl)phenyl]-1-methylethyl}-1-[4-fluoro-3-(methyloxy)phenyl]-1H-imidazol-2-yl)thio]methyl}-N-[(pyrrolidin-1-ylamino)carbonyl]benzenesulfonamide]	100 to 1000	100 to 1000
COc1cc(C(C)(C)c2cnc(SCc3ccc(S(=O)(=O)NC(=O)NN4CCCC4)cc3Cl)n2-c2ccc(F)c(CO)c2)ccc1Cl [3-chloro-4-{[(5-{1-[4-chloro-3-(methyloxy)phenyl]-1-methylethyl}-1-[4-fluoro-3-(hydroxymethyl)phenyl]-1H-imidazol-2-yl)thio]methyl}-N-[(pyrrolidin-1-ylamino)carbonyl]benzenesulfonamide]	100 to 1000	100 to 1000
COc1cc(C(C)(C)c2cnc(SCc3c(F)cc(C(=O)O)cc3Cl)n2-c2cccnc2)ccc1Cl [3-chloro-4-{[(5-{1-[4-chloro-3-(methyloxy)phenyl]-1-methylethyl}-1-pyridin-3-yl-1H-imidazol-2-yl)thio]methyl}-5-fluorobenzoic acid]	1000 to 10000	1000 to 10000
COc1cc(-n2c(C(C)(C)c3ccc(F)c(Cl)c3)cnc2SCc2c(F)cc(CCCN(C)C)cc2F)ccc1F [3-{4-[({5-[1-(3-chloro-4-fluorophenyl)-1-methylethyl]-1-[4-fluoro-3-(methyloxy)phenyl]-1H-imidazol-2-yl}thio)methyl]-3,5-difluorophenyl}-N,N-dimethylpropan-1-amine]	< 100	< 100
COc1cc(C(C)(C)c2cnc(SCc3c(F)cc(C(=O)NCCCC(=O)O)cc3Cl)n2-c2ccc(F)cc2)ccc1Cl [4-({[3-chloro-4-({[5-{1-[4-chloro-3-(methyloxy)phenyl]-1-methylethyl}-1-(4-fluorophenyl)-1H-imidazol-2-yl]thio}methyl)-5-fluorophenyl]carbonyl}amino)butanoic acid]	< 100	< 100
CC(C)(c1ccc(Cl)c(S(N)(=O)=O)c1)c1cnc(SCc2c(F)cc(C(=O)O)cc2Cl)n1-c1ccc(F)cc1 [4-({[5-{1-[3-(aminosulfonyl)-4-chlorophenyl]-1-methylethyl}-1-(4-fluorophenyl)-1H-imidazol-2-yl]thio}methyl)-3-chloro-5-fluorobenzoic acid]	100 to 1000	100 to 1000
COc1ccc(C(C)(C)c2cnc(SCc3c(F)cc(C(=O)O)cc3F)n2-c2ccc(F)cc2)cc1Cl [4-({[5-{1-[3-chloro-4-(methyloxy)phenyl]-1-methylethyl}-1-(4-fluorophenyl)-1H-imidazol-2-yl]thio}methyl)-3,5-difluorobenzoic acid]	< 100	< 100
COc1cc(C(C)(C)c2cnc(SCc3ccc(S(=O)(=O)NC(=O)NN4CCCC4)cc3Cl)n2-c2ccc(F)cc2)ccc1S(N)(=O)=O [4-({[5-{1-[4-(aminosulfonyl)-3-(methyloxy)phenyl]-1-methylethyl}-1-(4-fluorophenyl)-1H-imidazol-2-yl]thio}methyl)-3-chloro-N-[(pyrrolidine-1-ylamino)carbonyl]benzenesulfonamide]	100 to 1000	100 to 1000
CC(C)(c1ccc(S(N)(=O)=O)c(Cl)c1)c1cnc(SCc2ccc(S(=O)(=O)NC(=O)NN3CCOCC3)cc2Cl)n1-c1ccc(F)c(Cl)c1 [4-({[5-{1-[4-(aminosulfonyl)-3-chlorophenyl]-1-methylethyl}-1-(3-chloro-4-fluorophenyl)-1H-imidazol-2-yl]thio}methyl)-3-chloro-N-[(morpholin-4-ylamino)carbonyl]benzenesulfonamide]	100 to 1000	100 to 1000
CC(C)(c1ccc(S(N)(=O)=O)c(Cl)c1)c1cnc(SCc2c(F)cc(C(=O)O)cc2F)n1-c1ccc(F)cc1 [4-({[5-{1-[4-(aminosulfonyl)-3-chlorophenyl]-1-methylethyl}-1-(4-fluorophenyl)-1H-imidazol-2-yl]thio}methyl)-3,5-difluorobenzoic acid]	< 100	< 100
COc1cc(C(C)(C)c2cnc(S(=O)(=O)CC3CCN(S(C)(=O)=O)CC3)n2-c2ccc(F)cc2)ccc1Cl [4-({[5-{1-[4-chloro-3-(methyloxy)phenyl]-1-methylethyl}-1-(4-fluorophenyl)-1H-imidazol-2-yl]sulfonyl}methyl)-1-(methylsulfonyl)piperidine]	100 to 1000	100 to 1000

Next, values leading:

EC50 [1] [nM]	EC50 [2] [nM]	SMILES
< 100	< 100	COc1cc(-n2c(C(C)(C)c3ccc(Cl)c(OC)c3)cnc2SCc2ccc(S(=O)(=O)NC(=O)NN3CCCC3)cc2Cl)ccc1F [3-chloro-4-{[(5-{1-[4-chloro-3-(methyloxy)phenyl]-1-methylethyl}-1-[4-fluoro-3-(methyloxy)phenyl]-1H-imidazol-2-yl)thio]methyl}-N-[(pyrrolidin-1-ylamino)carbonyl]benzenesulfonamide]
< 100	< 100	COc1cc(-n2c(C(C)(C)c3ccc(S(N)(=O)=O)c(Cl)c3)cnc2SCc2ccc(S(N)(=O)=O)cc2Cl)ccc1F [4-(1-{2-({[4-(aminosulfonyl)-2-chlorophenyl]methyl}thio)-1-[4-fluoro-3-(methyloxy)phenyl]-1H-imidazol-5-yl}-1-methylethyl)-2-chlorobenzenesulfonamide]
< 100	1000 to 10000	COc1cc(C(C)(C)c2c(Cl)nc(SCC3CCN(c4nnn[nH]4)CC3)n2-c2ccc(F)cc2)ccc1Cl [4-({[4-chloro-5-{1-[4-chloro-3-(methyloxy)phenyl]-1-methylethyl}-1-(4-fluorophenyl)-1H-imidazol-2-yl]thio}methyl)-1-(1H-tetrazol-5-yl)piperidine]
100 to 1000	100 to 1000	COc1cc(C(C)(C)c2c(Cl)nc(SCC3CCN(S(C)(=O)=O)CC3)n2-c2ccc(F)cc2)ccc1Cl [4-({[4-chloro-5-{1-[4-chloro-3-(methyloxy)phenyl]-1-methylethyl}-1-(4-fluorophenyl)-1H-imidazol-2-yl]thio}methyl)-1-(methylsulfonyl)piperidine]
100 to 1000	< 100	COc1ccc(C(C)(C)c2cnc(SCc3ccc(C(N)=O)cc3F)n2-c2ccc(F)cc2)cc1OC [4-({[5-{1-[3,4-bis(methyloxy)phenyl]-1-methylethyl}-1-(4-fluorophenyl)-1H-imidazol-2-yl]thio}methyl)-3-fluorobenzamide]
< 100	< 100	COc1ccc(C(C)(C)c2cnc(SCc3c(F)cc(C#N)cc3F)n2-c2ccc(F)cc2)cc1Cl [4-({[5-{1-[3-chloro-4-(methyloxy)phenyl]-1-methylethyl}-1-(4-fluorophenyl)-1H-imidazol-2-yl]thio}methyl)-3,5-difluorobenzonitrile]
< 100	< 100	CC(C)(c1ccc(S(N)(=O)=O)c(Cl)c1)c1cnc(SCc2c(F)cc(C(=O)O)cc2F)n1-c1ccc(F)c(F)c1 [4-({[5-{1-[4-(aminosulfonyl)-3-chlorophenyl]-1-methylethyl}-1-(3,4-difluorophenyl)-1H-imidazol-2-yl]thio}methyl)-3,5-difluorobenzoic acid]
100 to 1000	100 to 1000	CC(C)(c1ccc(S(N)(=O)=O)c(Cl)c1)c1cnc(SCc2ccc(S(=O)(=O)NC(=O)NN3CCOCC3)cc2Cl)n1-c1ccc(F)c(F)c1 [4-({[5-{1-[4-(aminosulfonyl)-3-chlorophenyl]-1-methylethyl}-1-(3,4-difluorophenyl)-1H-imidazol-2-yl]thio}methyl)-3-chloro-N-[(morpholin-4-ylamino)carbonyl]benzenesulfonamide]
< 100	< 100	CC(C)(c1ccc(S(N)(=O)=O)c(Cl)c1)c1cnc(SCc2c(F)cc(C(=O)O)cc2Cl)n1-c1ccc(F)cc1 [4-({[5-{1-[4-(aminosulfonyl)-3-chlorophenyl]-1-methylethyl}-1-(4-fluorophenyl)-1H-imidazol-2-yl]thio}methyl)-3-chloro-5-fluorobenzoic acid]
100 to 1000	100 to 1000	CC(C)(c1ccc(S(N)(=O)=O)c(Cl)c1)c1cnc(SCc2ccc(S(=O)(=O)NC(=O)NN3CCCC3)cc2Cl)n1-c1ccc(F)cc1 [4-({[5-{1-[4-(aminosulfonyl)-3-chlorophenyl]-1-methylethyl}-1-(4-fluorophenyl)-1H-imidazol-2-yl]thio}methyl)-3-chloro-N-[(pyrrolidin-1-ylamino)carbonyl]benzenesulfonamide]
100 to 1000	100 to 1000	CC(C)(c1ccc(S(N)(=O)=O)c(Cl)c1)c1cnc(SCc2c(F)cc(C(=O)O)cc2F)n1-c1ccc(F)cn1 [4-({[5-{1-[4-(aminosulfonyl)-3-chlorophenyl]-1-methylethyl}-1-(5-fluoropyridin-2-yl)-1H-imidazol-2-yl]thio}methyl)-3,5-difluorobenzoic acid]
< 100	100 to 1000	COc1cc(C(C)(C)c2cnc(SCC3CCN(c4nnn[nH]4)CC3)n2-c2ccc(F)cc2)ccc1Cl [4-({[5-{1-[4-chloro-3-(methyloxy)phenyl]-1-methylethyl}-1-(4-fluorophenyl)-1H-imidazol-2-yl]thio}methyl)-1-(1H-tetrazol-5-yl)piperidine]
